Legend:
[1] = system: T1, rat NL-A1AR; assay: NanoBRET dissociation kinetics, rat NL-A1AR HEK293 cells; type: binding; settings: rat NL-A1AR HEK293 cells prelabeled with 250 nM, 10 μM DPCPX
T1 construct: expressed in transfected cells
Procedure: Figure 3 Molecular pharmacology and biochemical characterization of 11 and 12. NanoBRET ligand-binding data were measured in HEK293 cells stably expressing the human NL-A1AR (A–C) or rat NL-A1AR (D–F). […] Data were normalized to maximal BRET signals in the absence of unlabeled competing ligands (total binding, TB). (C, F) NanoBRET dissociation kinetics experiments with 11 (SulfoCy5) performed in human and rat NL-A1AR HEK293T cells, respectively. Cells were treated with 250 nM 11 (SulfoCy5, lilac open circles) for 5 h and CA200645 (black open triangles) for 2 h. […] Each data point represents the combined mean ± SEM from n = 5 (A, C), n = 4 (B, D), and n = 3 (E, F) experiments, each one performed in triplicate. (G) HEK293G cells stably expressing TS-SNAP-A1AR were treated with 300 nM 11 or 130 nM 12 in serum-free media for 2 h at 37 °C and 5% CO2. For samples treated with compound 12, the labeling solution was removed and immediately replaced with 10 mL of serum-free media containing 1 μM Met-Tet-Cy5 and incubated at 37 °C and 5% CO2 for a further 15 min. Untreated cells were used as a control. TS-SNAP-A1AR was purified and separated on an SDS-PAGEgel gel, and direct Cy5 fluorescence was visualized using in-gel fluorescence. The gel shown is representative of three independent experiments. […]
37 °C for kinetic binding experiments. Emissions were read at 420 nm (80 nm bandpass; […]

[2] = system: nontransfected HEK293 cells; assay: Confocal assessment of non-specific labelling in non-transfected HEK293T cells; type: cell-based, human; settings: 125 nM; cells do not express the A1AR
Excerpt: Having investigated the molecular pharmacology of 11 and 12 in a series of in vitro assays, we sought to apply the LD probes for studying A1AR localization and dynamics in living cells. To this end, LD probes 11 and 12 were initially used in confocal microscopy studies to test their ability to label and allow visualization of the SNAP-hA1AR in living HEK293T cells (Figure 6). […] With both probes, the fluorescence labeling colocalized with SNAP-hA1AR labeled with AF488 (Figure 6A,C top frames).
Supplementary Figures: Pharmacology
Figure S1. Fluorescence spectra of SulfoCy5-conjugated methyltetrazine in the absence or in the presence of probe 12 (PEG-TCO). “Turn-on” type reaction of tetrazine (Met-TetSulfoCy5) with PEGylated trans-cyclooctene (PEG-TCO)-labelled 12. Fluorescence excitation and emission spectra measured in HBSS with the corresponding tetrazineSulfoCy5 [100 nM] without, then with 12 (PEG-TCO) [1 µM] (allowed to react for 10 min prior detection). Exc maxima (Met-TetSulfoCy5 + PEG-TCO) = 1.80-fold increase compared to Met-TetSulfoCy5 alone; Em maxima (Met-TetSulfoCy5 + TCO) = 1.40-fold; Excitation and emission fluorescence spectra (1 nm step width) were measured were recorded on a CLARIOstar plate reader (BMG Labtech).
Figure S2. Assessment of 11 non-specific labelling performed in non-transfected live HEK293T cells. Left hand frame corresponds to SulfoCy5 channel. […]

[3] = target: T2, NL-hA2BAR (Homo sapiens, UniProt P29275); assay: NanoBRET competition ligand-binding assay (CA200645 tracer), NL-hA2BAR; settings: CA200645 (25 nM) tracer, HEK293T cells, mean ± SEM; read-out: affinity values pKi, NL-hA2BAR (converted)
T2 construct: expressed in transfected cells
T2 sequence (P29275 1-332): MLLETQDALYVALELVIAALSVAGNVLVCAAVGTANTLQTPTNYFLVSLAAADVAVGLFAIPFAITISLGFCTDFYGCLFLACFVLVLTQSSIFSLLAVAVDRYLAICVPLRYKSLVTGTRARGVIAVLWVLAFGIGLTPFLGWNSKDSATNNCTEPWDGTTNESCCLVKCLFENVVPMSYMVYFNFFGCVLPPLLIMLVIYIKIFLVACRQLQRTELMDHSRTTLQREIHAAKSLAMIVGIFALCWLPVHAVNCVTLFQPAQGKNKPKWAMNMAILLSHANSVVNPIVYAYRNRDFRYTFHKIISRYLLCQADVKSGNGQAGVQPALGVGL

SMILES | ability to covalently transfer the fluorophore to the A1AR (dissociation experiment) [1] | fluorescent signal in nontransfected HEK293 cells [2] | Ki [3]
CCCCn1c(=O)c2[nH]c(C34CCC(C(=O)NCCNC(=O)CCNC(=O)c5ccc(OC(=O)CCCCC[N+]6=C(/C=C/C=C/C=C7/N(C)c8ccc(S(=O)(=O)O)cc8C7(C)C)C(C)(C)c7cc(S(=O)(=O)[O-])ccc76)c(F)c5)(CC3)CC4)nc2n(CCCC)c1=O [Compound 11, 1-(6-(4-((3-((2-(4-(1,3-Dibutyl-2,6-dioxo-2,3,6,7-tetrahydro-1H-purin-8-yl)bicyclo[2.2.2]octane-1-carboxamido)ethyl)amino)-3-oxopropyl)carbamoyl)-2-fluorophenoxy)-6-oxohexyl)-3,3-dimethyl-2-((1E,3E)-5-((E)-1,3,3-trimethyl-5-sulfoindolin-2-ylidene)penta-1,3-dien-1-yl)-3H-indol-1-ium-5-sulfonate] | could be retained across species | did not produce any detectable fluorescent signal | 
CCCCn1c(=O)c2[nH]c(C34CCC(C(=O)NCCNC(=O)CCNC(=O)c5ccc(OC(=O)CCC(=O)NCCOCCOCCNC(=O)O[C@H]6CC/C=C/CCC6)c(F)c5)(CC3)CC4)nc2n(CCCC)c1=O [Compound 12, 4-((3-((2-(4-(1,3-Dibutyl-2,6-dioxo-2,3,6,7-tetrahydro-1H-purin-8-yl)bicyclo[2.2.2]octane-1-carboxamido)ethyl)amino)-3-oxopropyl)carbamoyl)-2-fluorophenyl (R,E)-1-(Cyclooct-4-en-1-yloxy)-1,12-dioxo-5,8-dioxa-2,11-diazapentadecan-15-oate] |  |  | 0.813 µM
